Measured values published in patent US20210330611A1, “THERAPY FOR NEUROLOGICAL DISEASES/DISORDERS” (priority 2020, published 2021).
Counter-ions that a name gives are not always drawn. Like-named read-outs stand apart in the source and are kept apart here.

Legend:
Type in all cases: cell-based, rat
[1] = test system: fibrin-induced microglia activation; assay: Image-based assay of fibrin-induced microglia activation (HTS and dose response); settings: for inhibition at 10 µM: read-out: Fibrin % inhibition; for IC50: read-out: fib_IC50
[2] = test system: LPS-induced microglia activation; assay: Image-based assay of LPS-induced microglia activation (HTS and dose response)
[3] = test system: fibrin- and LPS-induced microglia activation; assay: cells
[4] = Rattus norvegicus, Microglia, primary microglia HTS, fibrin stimulation, increased cell size (>800 μm^2) as marker of activation
[5] = Rattus norvegicus, Microglia, 48 h, primary microglia HTS, LPS stimulation; increased cell size (>800 μm^2) as marker of activation; read-out: LPS % inhibition
[6] = quadrant by fibrin and LPS inhibition in HTS of 1907 compounds
[7] = Rattus norvegicus, Microglia, 48 h, read-out: LPS % inhibition
[8] = Rattus norvegicus, Microglia, primary microglia HTS, fibrin stimulation, activation = cell size >800 μm2
[9] = Rattus norvegicus, Microglia, 48 h, primary microglia HTS, LPS stimulation, activation = cell size >800 μm2; read-out: LPS % inhibition
[10] = primary microglia HTS, fibrin stimulation, compounds at 10 μM
[11] = primary microglia HTS, LPS stimulation, compounds at 10 μM
[12] = quadrant by fibrin and LPS inhibition, HTS at 10 μM
[13] = Rattus norvegicus, Microglia, read-out: LPS % inhibition
[14] = primary microglia HTS, fibrin stimulation, activation = cell size >800 μm2
[15] = primary microglia HTS, LPS stimulation, activation = cell size >800 μm2
[16] = classification by fibrin and LPS inhibition, HTS at 10 μM
[17] = Rattus norvegicus, Microglia, primary microglia HTS, fibrin stimulation, compounds at 10 μM
[18] = Rattus norvegicus, Microglia, primary microglia HTS, LPS stimulation, compounds at 10 μM; read-out: LPS % inhibition
[19] = Rattus norvegicus, Microglia, primary microglia HTS, fibrin stimulation, cell size >800 μm2 as marker of activation
[20] = Rattus norvegicus, Microglia, 48 h; read-out: LPS % inhibition
[21] = classification by fibrin and LPS inhibition in HTS
[22] = Hill slope of fibrin dose response, Table 7
[23] = Hill slope of LPS dose response; Table 7
[24] = Table 7, fib = fibrin, LPS, tox = toxicity
[25] = Rattus norvegicus, Microglia, Table 7
[26] = Rattus norvegicus, Microglia, Table 7; read-out: LPS_IC50

CCCCC(C)(O)C/C=C/[C@H]1[C@H](O)CC(=O)[C@@H]1CCCCCCC(=O)OC (mixture of isomers) [Misoprostol]
inhibition at 10 µM [1, 4]: 13%
inhibition at 10 µM [2, 5]: 32%
Quadrant (FIG. 5b) [3, 6]: Q4

CN1CCN2c3ccccc3Cc3ccccc3C2C1 (stereo not shown) [Mianserin]
inhibition at 10 µM ([1]; Rattus norvegicus, Microglia): -18%
inhibition at 10 µM [2, 7]: 17%
Quadrant (FIG. 5b) [3]: Q4

C#C[C@]1(O)CC[C@H]2[C@@H]3CCC4=CC(=O)CC[C@@H]4[C@H]3CC[C@@]21CC [Levonorgestrel]
inhibition at 10 µM [1, 8]: 16%
inhibition at 10 µM [2, 9]: -13%
Quadrant (FIG. 5b) [3, 6]: Q4

Beta-escin
Fibrin % inhibition ([1]; primary HTS, 10 μM, fibrin-stimulated primary microglia): −11%
LPS % inhibition ([2]; primary HTS, 10 μM, LPS-stimulated primary microglia): 11%
Quadrant (FIG. 5b) ([3]; primary HTS, 10 μM): Q4

neomycin sulfate
fib specificity [1]: 2.2
fib_HS [1]: −0.75
IC50 [1]: 2300 nM
LPS specificity [2]: 0.5
Activity [3]: fib/LPS

O=C1OCCN1/N=C/c1ccc([N+](=O)[O-])o1 [Furazolidone]
inhibition at 10 µM ([1]; Rattus norvegicus, Microglia): 3%
inhibition at 10 µM [2, 7]: 8%
Quadrant (FIG. 5b) [3]: Q4

Adipic Acid, Hexanedioic Acid
Fibrin % inhibition [1, 10]: −24%
LPS % inhibition [2, 11]: 8%
Quadrant (FIG. 5b) [3, 12]: Q4

CCCCc1oc2ccccc2c1C(=O)c1cc(I)c(OCCN(CC)CC)c(I)c1 [Amiodarone]
inhibition at 10 µM ([1]; Rattus norvegicus, Microglia): -4%
inhibition at 10 µM [2, 13]: 13%
Quadrant (FIG. 5b) [3]: Q4

CN1[C@@H]2C[C@@H](OC(=O)[C@H](CO)c3ccccc3)C[C@H]1[C@@H]1O[C@@H]12 [Scopolamine Hydrobromide]
Fibrin % inhibition [1]: 5%
LPS % inhibition [2]: 3%
Quadrant (FIG. 5b) [3]: Q4

Hexylene Glycol
Fibrin % inhibition [1, 14]: −8%
LPS % inhibition [2, 15]: 12%
Quadrant (FIG. 5b) [3, 6]: Q4

CCC(=O)O[C@H]1CC[C@H]2[C@@H]3CCC4=CC(=O)CC[C@]4(C)[C@H]3CC[C@]12C [Testosterone Propionate]
inhibition at 10 µM ([1]; Rattus norvegicus, Microglia, primary microglia HTS, 10 μM, fibrin-stimulated, cell size >800 μm^2 as marker of activation): 21%
inhibition at 10 µM ([2]; Rattus norvegicus, Microglia, primary microglia HTS, 10 μM, LPS-stimulated, cell size >800 μm^2 as marker of activation; read-out: LPS % inhibition): 8%
Quadrant (FIG. 5b) ([3]; HTS of 1907 compounds, quadrant by fibrin and LPS inhibition): Q4

O.OC[C@H]1O[C@@H](O[C@H]2[C@H](O)[C@@H](O)C(O)O[C@@H]2CO)[C@H](O)[C@@H](O)[C@H]1O (stereo partly shown) [Lactose Monohydrate]
inhibition at 10 µM [1, 8]: -22%
inhibition at 10 µM [2, 9]: 9%
Quadrant (FIG. 5b) [3, 6]: Q4

C=C(C)[C@H]1CC=C(C)CC1 [D-limonene]
Fibrin % inhibition [1, 10]: −19%
LPS % inhibition [2, 11]: 11%
Quadrant (FIG. 5b) [3, 16]: Q4

Cc1cc(/C=C/c2ccc3cc(N(C)C)ccc3[n+]2C)c(C)n1-c1ccccc1 [Pyrvinium]
inhibition at 10 µM ([1]; Rattus norvegicus, Microglia): 113%
inhibition at 10 µM [2, 13]: 115%
Quadrant (FIG. 5b) [3]: Q2

C[C@]12CC[C@@H]3c4ccc(O)cc4CC[C@H]3[C@@H]1C[C@@H](O)[C@@H]2O [Estriol]
inhibition at 10 µM ([1]; Rattus norvegicus, Microglia): -17%
LPS % inhibition ([2]; 10 µM): 16%
inhibition at 10 µM [2, 13]: 8%
Quadrant (FIG. 5b) [3]: Q4

C[C@H]1O[C@H](O[C@H]2[C@H](O)[C@@H](O)[C@@H](O[C@H]3[C@H](O)[C@@H](O)C(O)O[C@@H]3CO)O[C@@H]2CO)[C@H](O)[C@@H](O)[C@@H]1N[C@H]1C=C(CO)[C@@H](O)[C@H](O)[C@H]1O (stereo partly shown) [Acarbose]
inhibition at 10 µM [1, 17]: -22%
inhibition at 10 µM [1, 4]: 81%
inhibition at 10 µM [2, 5]: 62%
inhibition at 10 µM [2, 18]: -5%
Quadrant (FIG. 5b) [3, 6]: Q2
Quadrant (FIG. 5b) [3, 12]: Q4

COc1cc2c(cc1OC)C(=O)C(CC1CCN(Cc3ccccc3)CC1)C2 (stereo not shown) [Donepezil]
inhibition at 10 µM ([1]; Rattus norvegicus, Microglia): 5%
inhibition at 10 µM [2, 13]: 17%
Quadrant (FIG. 5b) [3]: Q4

CC(C)C[C@H](CN)CC(=O)O [Pregabalin]
inhibition at 10 µM ([1]; Rattus norvegicus, Microglia): -5%
inhibition at 10 µM [2, 7]: 1%
Quadrant (FIG. 5b) [3]: Q4

CNC(C)C(O)c1ccccc1 (stereo not shown) [Racephedrine Hydrochloride]
inhibition at 10 µM [1, 19]: -26%
inhibition at 10 µM [2, 20]: 17%
Quadrant (FIG. 5b) [3, 21]: Q4

O=C(CCCN1CC=C(n2c(=O)[nH]c3ccccc32)CC1)c1ccc(F)cc1 [Droperidol]
inhibition at 10 µM ([1]; Rattus norvegicus, Microglia): -3%
inhibition at 10 µM [2, 13]: 20%
Quadrant (FIG. 5b) [3]: Q4

O=C(O)CCCCC1CCSS1 (stereo not shown) [Lipoic Acid]
Fibrin % inhibition [1, 14]: −38%
LPS % inhibition [2, 15]: 39%
Quadrant (FIG. 5b) [3, 6]: Q4

FluoromethoIone [reference compound]
fib_HS [1, 22]: −0.27
fib specificity ([1]; Table 7): 1.0
LPS_HS [2, 23]: 0.00
LPS specificity ([2]; Table 7): 1.0
Quadrant (FIG. 5b) ([3]; Table 2, screen at 10 μM): Q2
Activity [3, 24]: fib/LPS

COc1cc2c(c(OC)c1OC)-c1ccc(=O)c(O)cc1[C@@H](NC(C)=O)CC2 [colchiceine]
IC50 [1, 25]: 625 nM
IC50 [2, 26]: 820 nM
Activity [3, 24]: fib/LPS

CN[C@@H](C)[C@@H](O)c1ccccc1 [Pseudoephedrine]
inhibition at 10 µM [1, 19]: -13%
inhibition at 10 µM [2, 20]: 5%
Quadrant (FIG. 5b) [3, 21]: Q4

CCn1cc(C(=O)O)c(=O)c2cc(F)c(N3CCNC(C)C3)c(F)c21 (stereo not shown) [Lomefloxacin]
inhibition at 10 µM ([1]; Rattus norvegicus, Microglia): 7%
inhibition at 10 µM [2, 7]: 15%
Quadrant (FIG. 5b) [3]: Q4

C[C@@H]([C@H](O)c1ccccc1)N(C)C
Fibrin % inhibition [1, 10]: −52%
LPS % inhibition [2, 11]: 7%
Quadrant (FIG. 5b) [3, 12]: Q4

Oxolamine Citrate
Fibrin % inhibition [1]: −1%
LPS % inhibition [2]: 10%
Quadrant (FIG. 5b) [3]: Q4

Cn1nnnc1SCC1=C(C(=O)O)N2C(=O)[C@@H](NC(=O)[C@H](O)c3ccccc3)[C@H]2SC1 [cefamandole sodium]
IC50 [1, 25]: 52 nM
IC50 [2, 26]: 2 nM
Activity [3, 24]: fib/LPS

CC(N/C(=N\C#N)Nc1ccncc1)C(C)(C)C (stereo not shown) [Pinacidil]
inhibition at 10 µM [1, 19]: 15%
inhibition at 10 µM [2, 20]: 26%
Quadrant (FIG. 5b) [3, 21]: Q4

Nc1cc(N2CCCCC2)nc(N)[n+]1[O-] [Minoxidil]
inhibition at 10 µM [1, 4]: -5%
inhibition at 10 µM [2, 5]: 9%
Quadrant (FIG. 5b) [3, 6]: Q4

O=C(O)COC(=O)Cc1ccccc1Nc1c(Cl)cccc1Cl [Aceclofenac]
inhibition at 10 µM [1, 17]: -2%
inhibition at 10 µM [2, 18]: 8%
Quadrant (FIG. 5b) [3, 12]: Q4

CN(N=O)C(=O)N[C@@H](C=O)[C@@H](O)[C@H](O)[C@H](O)CO [Streptozocin]
inhibition at 10 µM ([1]; Rattus norvegicus, Microglia): -30%
inhibition at 10 µM [2, 13]: 19%
Quadrant (FIG. 5b) [3]: Q4

OC[C@H]1O[C@H](O[C@H]2[C@H](O)[C@@H](O)C(O)O[C@@H]2CO)[C@H](O)[C@@H](O)[C@@H]1O (stereo partly drawn) [D-(+)-maltose]
Fibrin % inhibition [1, 10]: −7%
LPS % inhibition [2, 11]: 14%
Quadrant (FIG. 5b) [3, 16]: Q4

O=C1O[C@H]([C@@H](O)CO)C(O)=C1O [Ascorbic Acid]
inhibition at 10 µM [1, 17]: -8%
inhibition at 10 µM [2, 18]: 12%
Quadrant (FIG. 5b) [3, 12]: Q4

podophyllotoxin acetate
fib_HS [1, 22]: −1.10
fib specificity ([1]; Table 7): 0.5
LPS_HS [2, 23]: −0.87
LPS specificity ([2]; Table 7): 1.8
IC50 ([2]; Table 7; read-out: LPS_IC50): 12 nM
Activity [3, 24]: fib/LPS

C=C[C@@]1(C)CC(=O)[C@]2(O)[C@@]3(C)[C@@H](O)CCC(C)(C)[C@@H]3[C@H](O)[C@H](OC(C)=O)[C@@]2(C)O1 [colforsin]
IC50 [1, 25]: 2080 nM
IC50 [2, 26]: 1350 nM
Activity [3, 24]: fib/LPS

CN[C@@H](C)[C@H](O)c1ccccc1.Cl [Ephedrine (1r,2s) Hydrochloride]
Fibrin % inhibition [1, 10]: −26%
LPS % inhibition [2, 11]: 10%
Quadrant (FIG. 5b) [3, 16]: Q4

CC(C)(C)c1ccc(C(O)CCCN2CCC(C(O)(c3ccccc3)c3ccccc3)CC2)cc1 (stereo not shown) [Terfenadine]
inhibition at 10 µM ([1]; Rattus norvegicus, Microglia): 19%
inhibition at 10 µM [2, 13]: 7%
Quadrant (FIG. 5b) [3]: Q4

COC(=O)C1=C(C)NC(C)=C(C(=O)OC)C1c1ccccc1[N+](=O)[O-] [Nifedipine]
inhibition at 10 µM ([1]; Rattus norvegicus, Microglia): -36%
inhibition at 10 µM [2, 7]: 2%
Quadrant (FIG. 5b) [3]: Q4

COc1cc([C@@H]2c3cc4c(c(O)c3C[C@H]3COC(=O)[C@@H]32)OCO4)cc(OC)c1OC [beta-peltatin]
fib_HS [1, 22]: −2.10
fib specificity ([1]; Table 7): 0.5
IC50 ([1]; Table 7): 505 nM
LPS_HS [2, 23]: −1.50
LPS specificity ([2]; Table 7): 2.0
IC50 ([2]; Table 7; read-out: LPS_IC50): 252 nM
Activity [3, 24]: fib/LPS

COc1cccc2c1C(=O)c1c(O)c3c(c(O)c1C2=O)C[C@@](O)(C(=O)CO)C[C@@H]3O[C@H]1C[C@H](N)[C@H](O)[C@H](C)O1 [Doxorubicin]
inhibition at 10 µM [1, 4]: 106%
inhibition at 10 µM [2, 5]: 108%
Quadrant (FIG. 5b) [3, 6]: Q2

COc1ccc2cc([C@H](C)C(=O)O)ccc2c1 [Naproxen]
inhibition at 10 µM ([1]; Rattus norvegicus, Microglia): -25%
inhibition at 10 µM [2, 7]: 15%
Quadrant (FIG. 5b) [3]: Q4
